Source: ChEMBL document CHEMBL1201862, “PubChem BioAssay data set” (2004)
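Cultured in 96-well plates, cells were exposed to test compound for 48 hours across five concentrations. GI50 marks 50% less growth.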 Activity calls are given as the source filed them. Cut-off read from the data, not from the text of the source: active = GI50 up to about 1.1 µM and inactive = higher.

Assays:
Assay in all cases: DTP human tumour cell line panel, 48 h
786-0 = test system: 786-0
A549 = test system: A549
COLO 205 = test system: COLO 205
EKVX = test system: EKVX
HT-29 = test system: HT-29
KM12 = test system: KM12
MDA-MB-231 = test system: MDA-MB-231
MDA-MB-435 = test system: MDA-MB-435
OVCAR-8 = test system: OVCAR-8
UO-31 = test system: UO-31
HL-60 = test system: HL-60
RPMI-8226 = test system: RPMI-8226
SF-268 = test system: SF-268
SF-539 = test system: SF-539
SN12C = test system: SN12C
T47D = test system: T47D

Measured: GI50

COc1ccc(-c2csc(Cc3nc4c(Br)cc(Br)cc4c(=O)n3-c3ccc(OC)cc3)n2)cc1
inactive: 786-0 28.3 µM | A549 63.2 µM | COLO 205 34.8 µM | EKVX > 100 µM | HT-29 48.9 µM | KM12 86.5 µM | MDA-MB-231 45.7 µM | MDA-MB-435 15.9 µM | OVCAR-8 > 100 µM | UO-31 35.2 µM

O=C(Cn1c2c(c3ccccc31)CCCC2)N1CCOCC1
inactive: 786-0 > 100 µM | A549 > 100 µM | COLO 205 > 100 µM | EKVX > 100 µM | HL-60 > 100 µM | HT-29 > 100 µM | MDA-MB-435 > 100 µM | OVCAR-8 > 100 µM | RPMI-8226 > 100 µM | SF-268 > 100 µM | SF-539 > 100 µM | SN12C > 100 µM | UO-31 25.9 µM

O=C(N[C@@H](c1ccccc1)[C@@H](O)C(=O)OCc1ccc([N+](=O)[O-])cc1)c1ccccc1
inactive: 786-0 > 100 µM | A549 > 100 µM | COLO 205 > 100 µM | EKVX > 100 µM | HT-29 > 100 µM | KM12 > 100 µM | MDA-MB-231 > 100 µM | MDA-MB-435 > 100 µM | OVCAR-8 > 100 µM | SF-268 > 100 µM | SF-539 > 100 µM | SN12C > 100 µM | T47D > 100 µM | UO-31 65.5 µM

O=C(OCC1CC(C2(O)CCCCC2)C(=O)O1)c1ccccc1 (configuration not stated)
inactive: 786-0 > 100 µM | A549 > 100 µM | COLO 205 > 100 µM | EKVX > 100 µM | HT-29 > 100 µM | KM12 > 100 µM | MDA-MB-231 > 100 µM | MDA-MB-435 > 100 µM | OVCAR-8 > 100 µM | RPMI-8226 > 100 µM | SF-268 > 100 µM | SF-539 > 100 µM | SN12C > 100 µM | UO-31 55.8 µM

Cc1cc2ccccc2oc(=O)/c1=N\Nc1ccccc1
inactive: 786-0 25.6 µM | A549 74.3 µM | COLO 205 > 100 µM | EKVX 37.2 µM | HL-60 > 100 µM | HT-29 64.6 µM | KM12 58.2 µM | MDA-MB-231 25.6 µM | MDA-MB-435 > 100 µM | OVCAR-8 28.8 µM | RPMI-8226 > 100 µM | SF-539 37.8 µM | SN12C 65.3 µM | UO-31 24.9 µM

CCOC(=O)Nn1cnnc1Cc1ccccc1
inactive: 786-0 > 100 µM | A549 > 100 µM | COLO 205 > 100 µM | EKVX > 100 µM | HT-29 > 100 µM | KM12 > 100 µM | MDA-MB-231 > 100 µM | MDA-MB-435 > 100 µM | OVCAR-8 > 100 µM | RPMI-8226 > 100 µM | SF-268 > 100 µM | SF-539 > 100 µM | SN12C > 100 µM | T47D > 100 µM | UO-31 > 100 µM

CCC(C)(C)C1CCC2c3c([nH]c4ccccc34)C3C(=O)N(c4ccc(OC)cc4)C(=O)C3C2C1 (configuration not stated)
inactive: 786-0 10.6 µM | A549 13.4 µM | COLO 205 10.3 µM | EKVX 35.4 µM | HT-29 11.2 µM | KM12 3.48 µM | MDA-MB-231 13 µM | MDA-MB-435 11 µM | OVCAR-8 12.9 µM | SF-268 15 µM | SF-539 12.4 µM | SN12C 2.42 µM | T47D 6.55 µM | UO-31 24.4 µM

C=C1CN2CC(=C)CN(C1)CS(=O)(=O)N1CC(=C)CN(CC(=C)C1)S(=O)(=O)N1CC(=C)CN(CC(=C)C1)S(=O)(=O)C2
inactive: 786-0 18.7 µM | A549 50.8 µM | COLO 205 34 µM | EKVX 39.1 µM | HL-60 35 µM | HT-29 > 100 µM | KM12 40.4 µM | MDA-MB-231 24.2 µM | MDA-MB-435 43.9 µM | OVCAR-8 40 µM | RPMI-8226 39.4 µM | SF-268 25.6 µM | SF-539 15.6 µM | SN12C 43.4 µM | UO-31 42 µM

CC(=O)N1N=C(c2ccc3ccccc3c2O)CC1C(=O)c1ccco1 (configuration not stated)
inactive: 786-0 45 µM | A549 27.9 µM | COLO 205 25.8 µM | HT-29 22.8 µM | KM12 10.8 µM | MDA-MB-231 80.5 µM | MDA-MB-435 14.7 µM | OVCAR-8 25.5 µM | RPMI-8226 17.2 µM | SF-268 14.4 µM | SF-539 26.1 µM | SN12C 41.2 µM | T47D 40.6 µM | UO-31 23.1 µM

CCOP(=O)(OCC)/C(C#N)=C/c1cccn1C(C)C
inactive: 786-0 > 100 µM | A549 > 100 µM | COLO 205 > 100 µM | EKVX > 100 µM | HT-29 > 100 µM | KM12 > 100 µM | MDA-MB-231 > 100 µM | MDA-MB-435 > 100 µM | OVCAR-8 > 100 µM | SF-268 > 100 µM | SF-539 > 100 µM | SN12C > 100 µM | T47D > 100 µM | UO-31 > 100 µM
